Test results as given in PMC5850045 (ERJ Open Research, 2018).
Where two headings read alike, the source gives them in different places.

What was measured:
5-HT2C receptor [1] = biological target: T1, 5-HT2C receptor (Homo sapiens, UniProt P28335); assay: Secondary radioligand binding assay
T1 sequence (P28335 33-458): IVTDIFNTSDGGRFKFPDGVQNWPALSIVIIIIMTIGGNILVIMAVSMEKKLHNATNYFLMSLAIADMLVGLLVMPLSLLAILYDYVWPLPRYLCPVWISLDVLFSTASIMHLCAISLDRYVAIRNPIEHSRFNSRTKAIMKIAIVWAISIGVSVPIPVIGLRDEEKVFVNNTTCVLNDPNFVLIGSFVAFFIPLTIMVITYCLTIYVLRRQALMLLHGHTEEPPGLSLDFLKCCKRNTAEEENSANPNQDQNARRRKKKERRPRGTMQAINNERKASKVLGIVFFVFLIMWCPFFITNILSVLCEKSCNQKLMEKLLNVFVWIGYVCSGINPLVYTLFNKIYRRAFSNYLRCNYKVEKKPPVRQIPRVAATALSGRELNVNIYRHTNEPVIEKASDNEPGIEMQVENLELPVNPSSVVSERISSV

β3-adrenergic receptor [2] = biological target: T2, β3-adrenergic receptor (Homo sapiens, UniProt P13945); assay: Secondary radioligand binding assay
serotonin transporter [3] = biological target: T3, serotonin transporter (Homo sapiens, UniProt P31645); assay: Primary radioligand binding screen; settings: 10 µM, n = 4
β3-adrenergic receptor [4] = biological target: T2, β3-adrenergic receptor; assay: Primary radioligand binding screen; settings: 10 µM, n = 4
α1A-adrenergic receptor [5] = biological target: T4, α1A-adrenergic receptor (Homo sapiens, UniProt P35348); assay: Primary radioligand binding screen; settings: 10 µM, n = 4
T4 sequence (P35348 1-466): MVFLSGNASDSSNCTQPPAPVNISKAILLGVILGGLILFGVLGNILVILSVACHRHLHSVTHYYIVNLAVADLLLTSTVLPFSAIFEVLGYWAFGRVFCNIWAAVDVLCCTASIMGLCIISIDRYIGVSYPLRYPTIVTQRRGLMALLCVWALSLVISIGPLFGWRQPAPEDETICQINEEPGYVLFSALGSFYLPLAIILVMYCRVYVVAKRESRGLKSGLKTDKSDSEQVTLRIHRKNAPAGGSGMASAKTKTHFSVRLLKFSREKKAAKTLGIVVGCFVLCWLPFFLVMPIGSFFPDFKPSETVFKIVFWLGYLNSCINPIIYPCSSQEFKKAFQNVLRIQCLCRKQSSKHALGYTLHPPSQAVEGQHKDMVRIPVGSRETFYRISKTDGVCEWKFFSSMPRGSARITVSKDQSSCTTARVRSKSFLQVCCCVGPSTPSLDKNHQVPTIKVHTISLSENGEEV

5-HT2C receptor [6] = biological target: T1, 5-HT2C receptor; assay: Primary radioligand binding screen; settings: 10 µM, n = 4
δ-opioid receptor [7] = biological target: T5, δ-opioid receptor (Homo sapiens, UniProt P41143); assay: Primary radioligand binding screen; settings: 10 µM, n = 4
serotonin transporter [8] = biological target: T3, serotonin transporter; assay: Secondary radioligand binding assay; settings: low-affinity binding
δ-opioid receptor [9] = biological target: T5, δ-opioid receptor; assay: Secondary radioligand binding assay
dopamine transporter = dopamine transporter (Homo sapiens, UniProt Q01959); assay: Primary radioligand binding screen; settings: 10 µM, n = 4
rat colon = assay: Ex vivo rat colon force contraction experiment; settings: for contractile response in the colon: colon pre-treated with β3 receptor selective antagonist SR59230A; for effects on colonic contractions: ex vivo rat colon preparation
α1A-adrenergic receptor [10] = biological target: T4, α1A-adrenergic receptor; assay: Secondary radioligand binding assay
muscarinic M3 receptor = muscarinic M3 receptor (Homo sapiens, UniProt P20309); format: binding
α1D-adrenergic receptor = biological target: T6, α1D-adrenergic receptor (Homo sapiens, UniProt P25100); assay: Secondary radioligand binding assay
T6 sequence (P25100 1-572): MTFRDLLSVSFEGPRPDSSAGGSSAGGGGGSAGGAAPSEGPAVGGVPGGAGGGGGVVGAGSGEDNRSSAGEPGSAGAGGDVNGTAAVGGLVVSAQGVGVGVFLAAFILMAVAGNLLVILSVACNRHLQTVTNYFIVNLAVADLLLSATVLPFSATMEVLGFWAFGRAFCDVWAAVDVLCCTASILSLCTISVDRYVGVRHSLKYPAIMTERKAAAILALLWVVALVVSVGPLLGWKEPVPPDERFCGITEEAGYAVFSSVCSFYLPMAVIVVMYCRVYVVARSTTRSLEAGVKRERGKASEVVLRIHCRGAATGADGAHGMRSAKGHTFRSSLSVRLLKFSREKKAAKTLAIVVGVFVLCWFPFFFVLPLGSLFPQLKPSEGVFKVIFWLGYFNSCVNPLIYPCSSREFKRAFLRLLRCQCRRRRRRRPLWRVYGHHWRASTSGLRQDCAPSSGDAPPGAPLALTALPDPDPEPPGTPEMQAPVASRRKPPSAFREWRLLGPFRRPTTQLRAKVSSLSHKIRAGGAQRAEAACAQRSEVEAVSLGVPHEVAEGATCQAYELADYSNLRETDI

histamine H1 receptor = histamine H1 receptor (Homo sapiens, UniProt P35367); assay: Primary radioligand binding screen; settings: 10 µM, n = 4
α1B-adrenergic receptor = biological target: T7, α1B-adrenergic receptor (Homo sapiens, UniProt P35368); assay: Secondary radioligand binding assay
T7 sequence (P35368 1-520): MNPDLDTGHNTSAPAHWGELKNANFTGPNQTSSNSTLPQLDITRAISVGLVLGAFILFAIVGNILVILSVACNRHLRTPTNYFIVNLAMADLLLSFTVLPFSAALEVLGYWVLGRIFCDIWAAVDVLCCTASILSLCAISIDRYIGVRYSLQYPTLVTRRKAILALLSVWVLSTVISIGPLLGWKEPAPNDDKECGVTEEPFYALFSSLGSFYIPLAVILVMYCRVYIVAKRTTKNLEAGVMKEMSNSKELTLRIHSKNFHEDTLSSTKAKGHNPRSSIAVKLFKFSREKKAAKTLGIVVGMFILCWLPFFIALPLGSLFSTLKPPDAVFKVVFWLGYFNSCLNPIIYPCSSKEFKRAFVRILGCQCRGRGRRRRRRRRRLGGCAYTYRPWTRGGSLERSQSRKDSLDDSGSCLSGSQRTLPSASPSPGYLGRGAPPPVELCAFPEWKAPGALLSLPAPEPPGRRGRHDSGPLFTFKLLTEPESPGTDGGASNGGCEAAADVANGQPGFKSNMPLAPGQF

T3 sequence (P31645 whole entry): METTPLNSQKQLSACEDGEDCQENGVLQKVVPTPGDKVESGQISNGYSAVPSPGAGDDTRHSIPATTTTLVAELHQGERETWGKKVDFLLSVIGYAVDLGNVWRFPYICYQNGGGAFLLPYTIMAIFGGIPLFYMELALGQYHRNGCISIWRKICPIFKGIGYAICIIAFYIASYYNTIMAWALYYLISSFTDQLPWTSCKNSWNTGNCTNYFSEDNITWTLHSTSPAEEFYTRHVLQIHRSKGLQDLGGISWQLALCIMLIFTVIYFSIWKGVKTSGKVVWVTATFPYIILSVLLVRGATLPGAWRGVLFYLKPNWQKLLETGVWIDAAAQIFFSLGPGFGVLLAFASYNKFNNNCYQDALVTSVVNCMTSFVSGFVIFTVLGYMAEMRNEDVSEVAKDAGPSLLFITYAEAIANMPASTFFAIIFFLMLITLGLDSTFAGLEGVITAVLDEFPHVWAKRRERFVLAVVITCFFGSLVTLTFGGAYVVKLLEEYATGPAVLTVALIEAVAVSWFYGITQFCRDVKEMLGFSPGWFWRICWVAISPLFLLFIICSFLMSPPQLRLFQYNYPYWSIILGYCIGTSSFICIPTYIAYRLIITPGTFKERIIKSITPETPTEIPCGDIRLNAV
T5 sequence (P41143 whole entry): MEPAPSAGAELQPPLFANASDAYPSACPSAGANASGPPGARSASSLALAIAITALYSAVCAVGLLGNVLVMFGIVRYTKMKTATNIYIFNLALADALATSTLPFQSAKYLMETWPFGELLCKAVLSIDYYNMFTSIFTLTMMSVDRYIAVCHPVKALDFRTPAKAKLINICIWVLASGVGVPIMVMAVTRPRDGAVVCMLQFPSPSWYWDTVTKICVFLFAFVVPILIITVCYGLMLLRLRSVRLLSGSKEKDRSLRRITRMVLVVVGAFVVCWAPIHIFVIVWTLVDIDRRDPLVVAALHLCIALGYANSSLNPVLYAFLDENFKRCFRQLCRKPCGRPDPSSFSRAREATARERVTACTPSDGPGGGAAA
Chain of muscarinic M3 receptor (P20309 whole entry): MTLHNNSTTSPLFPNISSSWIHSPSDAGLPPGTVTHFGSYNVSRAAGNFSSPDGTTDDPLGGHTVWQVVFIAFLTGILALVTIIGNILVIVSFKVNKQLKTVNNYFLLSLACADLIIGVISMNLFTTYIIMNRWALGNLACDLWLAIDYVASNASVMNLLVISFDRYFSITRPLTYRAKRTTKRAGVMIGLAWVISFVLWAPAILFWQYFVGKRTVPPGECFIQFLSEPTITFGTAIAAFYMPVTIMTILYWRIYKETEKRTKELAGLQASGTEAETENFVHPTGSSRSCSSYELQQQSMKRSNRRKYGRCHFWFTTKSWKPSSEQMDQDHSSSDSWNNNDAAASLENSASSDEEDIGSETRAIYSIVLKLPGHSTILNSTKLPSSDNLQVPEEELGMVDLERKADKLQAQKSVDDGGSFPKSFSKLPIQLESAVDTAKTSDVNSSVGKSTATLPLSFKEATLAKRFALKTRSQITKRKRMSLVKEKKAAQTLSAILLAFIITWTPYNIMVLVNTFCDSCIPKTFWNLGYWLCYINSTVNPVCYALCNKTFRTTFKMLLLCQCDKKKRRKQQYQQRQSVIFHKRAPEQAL
T2 sequence (P13945 whole entry, species assumed): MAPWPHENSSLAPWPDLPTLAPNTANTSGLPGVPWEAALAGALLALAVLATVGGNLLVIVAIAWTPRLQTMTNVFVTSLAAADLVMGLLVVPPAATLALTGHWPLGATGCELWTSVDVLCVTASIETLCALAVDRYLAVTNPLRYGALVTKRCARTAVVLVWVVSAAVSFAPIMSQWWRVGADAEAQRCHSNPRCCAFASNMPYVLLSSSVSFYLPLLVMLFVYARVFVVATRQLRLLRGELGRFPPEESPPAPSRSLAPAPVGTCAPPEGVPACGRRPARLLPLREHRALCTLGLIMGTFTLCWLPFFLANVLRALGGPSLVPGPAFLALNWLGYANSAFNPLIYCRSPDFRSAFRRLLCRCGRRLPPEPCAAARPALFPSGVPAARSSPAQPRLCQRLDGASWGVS
Chain of histamine H1 receptor (P35367 whole entry, species assumed): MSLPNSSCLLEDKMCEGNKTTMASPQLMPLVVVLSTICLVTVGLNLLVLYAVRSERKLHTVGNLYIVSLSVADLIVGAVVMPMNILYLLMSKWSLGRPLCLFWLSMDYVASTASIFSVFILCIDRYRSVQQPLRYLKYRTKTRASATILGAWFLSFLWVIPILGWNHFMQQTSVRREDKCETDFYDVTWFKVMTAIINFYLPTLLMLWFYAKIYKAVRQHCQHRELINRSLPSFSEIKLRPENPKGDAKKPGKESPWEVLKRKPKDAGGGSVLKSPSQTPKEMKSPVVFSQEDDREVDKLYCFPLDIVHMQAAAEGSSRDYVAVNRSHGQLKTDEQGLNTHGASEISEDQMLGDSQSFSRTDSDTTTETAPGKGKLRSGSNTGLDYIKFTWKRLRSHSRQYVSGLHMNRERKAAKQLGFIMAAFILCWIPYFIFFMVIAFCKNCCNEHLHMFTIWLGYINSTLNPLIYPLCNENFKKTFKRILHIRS
Chain of dopamine transporter (Q01959 whole entry): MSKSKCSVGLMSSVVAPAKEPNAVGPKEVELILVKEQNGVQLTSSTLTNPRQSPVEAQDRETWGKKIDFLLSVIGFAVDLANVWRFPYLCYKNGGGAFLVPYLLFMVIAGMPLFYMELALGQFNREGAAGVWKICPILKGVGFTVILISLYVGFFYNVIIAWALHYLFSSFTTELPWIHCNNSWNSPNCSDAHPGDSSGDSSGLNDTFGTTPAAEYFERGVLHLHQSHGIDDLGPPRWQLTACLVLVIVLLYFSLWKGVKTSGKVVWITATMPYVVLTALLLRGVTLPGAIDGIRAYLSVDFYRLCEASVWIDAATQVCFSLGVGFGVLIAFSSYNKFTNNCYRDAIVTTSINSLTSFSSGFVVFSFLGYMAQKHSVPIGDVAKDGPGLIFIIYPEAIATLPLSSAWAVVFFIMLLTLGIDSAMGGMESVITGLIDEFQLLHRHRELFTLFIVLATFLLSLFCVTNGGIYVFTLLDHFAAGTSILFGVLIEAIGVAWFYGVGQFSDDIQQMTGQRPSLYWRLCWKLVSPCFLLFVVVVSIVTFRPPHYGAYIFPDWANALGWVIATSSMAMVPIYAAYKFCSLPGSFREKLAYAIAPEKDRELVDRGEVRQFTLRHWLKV

Structure (SMILES) | % displacement (serotonin transporter [3]) [%] | % displacement (α1A-adrenergic receptor [5]) [%] | % displacement (5-HT2C receptor [6]) [%] | contractile response in the colon (rat colon) | effects on colonic contractions (rat colon) | Ki (serotonin transporter [8]) [µM] | Ki (α1A-adrenergic receptor [10]; low-affinity binding) [µM] | Ki (α1D-adrenergic receptor) [µM] | % displacement (histamine H1 receptor) [%] | other results
CC(C)(C)c1cc(C(C)(C)C)c(NC(=O)c2c[nH]c3ccccc3c2=O)cc1O [ivacaftor] | 61.1 | 58.3 | 84.8 | significant contractile response | no significant effects | – | – | – | – | Ki (5-HT2C receptor [1]): 0.866 µM; Ki (β3-adrenergic receptor [2]): 1.93 µM; % displacement (β3-adrenergic receptor [4]): 75.9%; % displacement (δ-opioid receptor [7]): 50.8%; Ki (serotonin transporter [8]; Ki): > 10 µM; Ki (δ-opioid receptor [9]): 2.59 µM; % displacement (dopamine transporter): 55.2%; Ki (α1A-adrenergic receptor [10]): > 10 µM
CC(C)(C)c1cc(C(C)(C)CO)c(O)cc1NC(=O)c1c[nH]c2ccccc2c1=O [iva-M1, hydroxymethylivacaftor] | 56.7 | 79.9 | 78.2 | – | – | > 10 | > 10 | – | – | Ki (muscarinic M3 receptor): 1.83 µM; pKi (muscarinic M3 receptor): 5.70±0.10
CC(C)(CO)c1cc2cc(NC(=O)C3(c4ccc5c(c4)OC(F)(F)O5)CC3)c(F)cc2n1C[C@@H](O)CO [tezacaftor] | – | – | – | – | – | – | – | 5.45 | 53.3 | –
CC(C)(C)c1cc(C(C)(C)C(=O)O)c(O)cc1NC(=O)c1c[nH]c2ccccc2c1=O [iva-M6, ivacaftorcarboxylate] | 50.9 | 92.3 | – | significant contractile response | no significant effects | > 10 | > 10 | – | – | –
Cc1ccc(NC(=O)C2(c3ccc4c(c3)OC(F)(F)O4)CC2)nc1-c1cccc(C(=O)O)c1 [lumacaftor] | – | – | – | – | – | – | – | 4.84 | 71.2 | Ki (α1B-adrenergic receptor): > 10 µM
